We go through 13 compounds from patent US20250206708A1, “AN OXAZIRIDINE PLATFORM FOR TARGETING FUNCTIONAL ALLOSTERIC METHIONINE SITES” (Novartis AG, priority 2022, published 2025).

For data set [1] the following is noted: sulfimine adduct; obtained from previous report; the values are: ln(kobs), kobs in 1/h; cited from earlier work.
Another data set has as its system CDK4. Description: Western blot of Rb phosphorylation (S780, S807/811) as cellular CDK4 activity. Conditions: serum-synchronized MCF-7 cells, dose of 500 μM. It counts as cell-based, human. How it is done:
Cells were synchronized to G1 via serum starvation. Cells were plated at 50% confluency and allowed to adhere overnight in serum-containing media. The next morning, the cells were gently washed twice with HBSS, and serum-free media was added. Cells were allowed to incubate an additional […], […]. Final cell confluency should remain below 75% for optimal results.
Cells were seeded in full media at 8 e5 cells/well in a 6-well plate. They were then serum-synchronized, as outlined in Example 15, and treated with compound as described previously. Cells were monitored by eye for cell death and harvested once high-dose cells were round but not detached. Cells were transferred to ice and washed twice gently with 1 mL ice-cold PBS. 10 mL of lysis buffer was prepared by dissolved a protease-inhibitor table (Pierce; cat no. A32953) and a phosphatase-inhibitor tablet (Roche; cat no. 4906845001) in 10 mL PBS (1% Triton X-100). Cells were scraped to harvest, transferred to 1.5 mL Eppendorf tubes, and incubated at 4° C. for 30 min on a rotator. Samples were spun at 5000×g for 10 min to clarify lysate. Supernatant was transferred to a new tube and protein concentration quantified via BCA assay (Pierce; cat no. 23225). Samples were normalized to the lowest concentration using chilled lysis buffer. […]

Take `CC(C)NC(=O)N=S(C)C`: the Rate of Hydrolysis (In(kobs)) in data set [1] was 0.044.
Take `CS(C)=NC(=O)NC1CCCCC1`: in data set [1], the Rate of Hydrolysis (In(kobs)) is 0.032.
Consider `CS(C)=NC(=O)N1CCCC1`, for which the Rate of Hydrolysis (In(kobs)) in data set [1] was -0.96.
`CS(C)=NC(=O)NCc1ccccc1`: the Rate of Hydrolysis (In(kobs)) in data set [1] is 0.29.
With `C#CCOC(=O)N1C[C@@H]2CN(C(=O)N3OC3c3ccccc3)C[C@@H]2C1` (stereo partly shown) [Compound 300], the “signal from pRb antibodies (cellular CDK4 activity)” value in the data set with CDK4 is reported as “marked decrease in signal”.
Consider `CC(C)CNC(=O)N=S(C)C`, for which, in data set [1], the Rate of Hydrolysis (In(kobs)) is -0.085.
`CCOC(=O)N=S(C)C`: the Rate of Hydrolysis (In(kobs)) in data set [1] is 1.69.
For `CCNC(=O)N=S(C)C`, the Rate of Hydrolysis (In(kobs)) in data set [1] was 0.17.
Turning to `CS(C)=NC(=O)NC(C)(C)C`, the Rate of Hydrolysis (In(kobs)) in data set [1] is -0.28.
On to `CS(C)=NC(=O)NCC(C)(C)C`, for which the Rate of Hydrolysis (In(kobs)) in data set [1] is -0.15.
Consider `CS(C)=NC(=O)NCC(F)(F)F`, for which the Rate of Hydrolysis (In(kobs)) in data set [1] was 0.53.
In the case of `CS(C)=NC(=O)N1CCCCC1`, in data set [1], the Rate of Hydrolysis (In(kobs)) was -1.81.
As for `CS(C)=NC(=O)NC(c1ccccc1)c1ccccc1`, the Rate of Hydrolysis (In(kobs)) in data set [1] is 0.24.
